PubChem BioAssay (NCI)
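Exposure lasted 48 hours, with cells grown in 96-well plates and compounds tested at five concentrations. TGI: concentration producing complete growth inhibition.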

Tests used:
Test in all cases: DTP human tumour cell line panel, 48 h
IGROV1 ovarian = tested on: IGROV1 ovarian
NCI-H460 lung = tested on: NCI-H460 lung
MCF7 breast = tested on: MCF7 breast
CAKI-1 renal = tested on: CAKI-1 renal
SK-MEL-28 melanoma = tested on: SK-MEL-28 melanoma
OVCAR-8 ovarian = tested on: OVCAR-8 ovarian
SF-268 CNS = tested on: SF-268 CNS
U251 CNS = tested on: U251 CNS
HCT-15 colon = tested on: HCT-15 colon
UACC-257 melanoma = tested on: UACC-257 melanoma
OVCAR-5 ovarian = tested on: OVCAR-5 ovarian
K-562 leukemia = tested on: K-562 leukemia
BT-549 breast = tested on: BT-549 breast
CCRF-CEM leukemia = tested on: CCRF-CEM leukemia
DU-145 prostate = tested on: DU-145 prostate
TK-10 renal = tested on: TK-10 renal
SF-539 CNS = tested on: SF-539 CNS
SN12C renal = tested on: SN12C renal
EKVX NSCLC = tested on: EKVX NSCLC
MDA-MB-435 = tested on: MDA-MB-435
MDA-MB-231 breast = tested on: MDA-MB-231 breast
HCT-116 colon = tested on: HCT-116 colon
OVCAR-4 ovarian = tested on: OVCAR-4 ovarian
MDA-N = tested on: MDA-N
UO-31 renal = tested on: UO-31 renal
786-0 renal = tested on: 786-0 renal
A549 NSCLC = tested on: A549 NSCLC
SNB-19 CNS = tested on: SNB-19 CNS
NCI-H226 lung = tested on: NCI-H226 lung
M14 melanoma = tested on: M14 melanoma
NCI-H23 lung = tested on: NCI-H23 lung
A498 renal = tested on: A498 renal
KM12 colon = tested on: KM12 colon
SF-295 CNS = tested on: SF-295 CNS
HOP-92 NSCLC = tested on: HOP-92 NSCLC
SK-MEL-5 melanoma = tested on: SK-MEL-5 melanoma
LOX IMVI melanoma = tested on: LOX IMVI melanoma
MOLT-4 leukemia = tested on: MOLT-4 leukemia
SK-OV-3 ovarian = tested on: SK-OV-3 ovarian
PC-3 prostate = tested on: PC-3 prostate
HCC-2998 colon = tested on: HCC-2998 colon
NCI-H522 lung = tested on: NCI-H522 lung
HT29 colon = tested on: HT29 colon
UACC-62 melanoma = tested on: UACC-62 melanoma
SNB-75 CNS = tested on: SNB-75 CNS
SW-620 colon = tested on: SW-620 colon
RPMI-8226 leukemia = tested on: RPMI-8226 leukemia
COLO 205 colon = tested on: COLO 205 colon
MALME-3M melanoma = tested on: MALME-3M melanoma
SK-MEL-2 melanoma = tested on: SK-MEL-2 melanoma
OVCAR-3 ovarian = tested on: OVCAR-3 ovarian
NCI/ADR-RES ovarian = tested on: NCI/ADR-RES ovarian
ACHN renal = tested on: ACHN renal
HOP-62 NSCLC = tested on: HOP-62 NSCLC
HL-60(TB) leukemia = tested on: HL-60(TB) leukemia
SR leukemia = tested on: SR leukemia
T-47D breast = tested on: T-47D breast
HS 578T breast = tested on: HS 578T breast

CCC/C(Cl)=N\OC(=O)Nc1ccc(F)c([N+](=O)[O-])c1
TGI (IGROV1 ovarian): 28.7 µM
TGI (NCI-H460 lung): 34.9 µM
TGI (MCF7 breast): 75.5 µM
TGI (CAKI-1 renal): 15.5 µM
TGI (SK-MEL-28 melanoma): 34.2 µM
TGI (OVCAR-8 ovarian): 31.3 µM
TGI (SF-268 CNS): 29.2 µM
TGI (U251 CNS): 37.3 µM
TGI (HCT-15 colon): 34.8 µM
TGI (UACC-257 melanoma): 34.2 µM
TGI (OVCAR-5 ovarian): 44.4 µM
TGI (K-562 leukemia): > 100 µM
TGI (BT-549 breast): 22.4 µM
TGI (CCRF-CEM leukemia): > 100 µM
TGI (DU-145 prostate): 28.6 µM
TGI (TK-10 renal): 32 µM
TGI (SF-539 CNS): 42.9 µM
TGI (SN12C renal): 72.2 µM
TGI (EKVX NSCLC): 29.9 µM
TGI (MDA-MB-435): 30.4 µM
TGI (MDA-MB-231 breast): 36.8 µM
TGI (HCT-116 colon): > 100 µM
TGI (OVCAR-4 ovarian): 28.9 µM
TGI (MDA-N): 47.6 µM
TGI (UO-31 renal): 26.6 µM
TGI (786-0 renal): 40 µM
TGI (A549 NSCLC): 66.4 µM
TGI (SNB-19 CNS): 28.5 µM
TGI (NCI-H226 lung): 55.7 µM
TGI (M14 melanoma): 30.4 µM
TGI (NCI-H23 lung): 28.1 µM
TGI (A498 renal): 48.4 µM
TGI (KM12 colon): 32.7 µM
TGI (SF-295 CNS): > 100 µM
TGI (HOP-92 NSCLC): 31.7 µM
TGI (SK-MEL-5 melanoma): 35.2 µM
TGI (LOX IMVI melanoma): 66.8 µM
TGI (MOLT-4 leukemia): 11.2 µM
TGI (SK-OV-3 ovarian): 78.9 µM
TGI (PC-3 prostate): 28.5 µM
TGI (HCC-2998 colon): 31.3 µM
TGI (NCI-H522 lung): 4.3 µM
TGI (HT29 colon): 45.3 µM
TGI (UACC-62 melanoma): 37.7 µM
TGI (SNB-75 CNS): 33 µM
TGI (SW-620 colon): 39.6 µM
TGI (RPMI-8226 leukemia): > 100 µM
TGI (COLO 205 colon): 12 µM
TGI (MALME-3M melanoma): 22.8 µM
TGI (SK-MEL-2 melanoma): 27.3 µM
TGI (OVCAR-3 ovarian): 28.9 µM
TGI (NCI/ADR-RES ovarian): 36.6 µM
TGI (ACHN renal): 18.1 µM
TGI (HOP-62 NSCLC): 34.9 µM

CCCCNC(=S)c1ccc(OC(=O)Nc2ccc(Cl)cc2)cc1
TGI (IGROV1 ovarian): 70.4 µM
TGI (NCI-H460 lung): > 100 µM
TGI (HL-60(TB) leukemia): > 100 µM
TGI (MCF7 breast): > 100 µM
TGI (CAKI-1 renal): > 100 µM
TGI (SR leukemia): > 100 µM
TGI (SK-MEL-28 melanoma): > 100 µM
TGI (OVCAR-8 ovarian): > 100 µM
TGI (SF-268 CNS): > 100 µM
TGI (U251 CNS): > 100 µM
TGI (HCT-15 colon): > 100 µM
TGI (UACC-257 melanoma): > 100 µM
TGI (OVCAR-5 ovarian): > 100 µM
TGI (K-562 leukemia): > 100 µM
TGI (BT-549 breast): > 100 µM
TGI (CCRF-CEM leukemia): > 100 µM
TGI (DU-145 prostate): > 100 µM
TGI (SF-539 CNS): > 100 µM
TGI (EKVX NSCLC): > 100 µM
TGI (MDA-MB-435): > 100 µM
TGI (HCT-116 colon): > 100 µM
TGI (OVCAR-4 ovarian): > 100 µM
TGI (MDA-N): > 100 µM
TGI (UO-31 renal): > 100 µM
TGI (786-0 renal): > 100 µM
TGI (A549 NSCLC): > 100 µM
TGI (T-47D breast): > 100 µM
TGI (SNB-19 CNS): > 100 µM
TGI (M14 melanoma): > 100 µM
TGI (HS 578T breast): > 100 µM
TGI (NCI-H23 lung): > 100 µM
TGI (A498 renal): > 100 µM
TGI (KM12 colon): > 100 µM
TGI (SF-295 CNS): > 100 µM
TGI (SK-MEL-5 melanoma): > 100 µM
TGI (LOX IMVI melanoma): > 100 µM
TGI (MOLT-4 leukemia): > 100 µM
TGI (SK-OV-3 ovarian): > 100 µM
TGI (PC-3 prostate): > 100 µM
TGI (HCC-2998 colon): > 100 µM
TGI (NCI-H522 lung): > 100 µM
TGI (HT29 colon): > 100 µM
TGI (UACC-62 melanoma): 93.6 µM
TGI (SW-620 colon): > 100 µM
TGI (RPMI-8226 leukemia): > 100 µM
TGI (COLO 205 colon): 57.5 µM
TGI (MALME-3M melanoma): > 100 µM
TGI (SK-MEL-2 melanoma): > 100 µM
TGI (OVCAR-3 ovarian): > 100 µM
TGI (NCI/ADR-RES ovarian): > 100 µM
TGI (ACHN renal): > 100 µM
TGI (HOP-62 NSCLC): > 100 µM
